# Reference: US20260234164A1, “BIPHENYL COMPOUND AS IMMUNOMODULATOR, PREPARATION METHOD THEREFOR AND USE THEREOF” (SHENZHEN CHIPSCREEN BIOSCIENCES CO., LTD., priority 2021, published 2026)
# Columns and labels:
# [1] = Pharmacokinetic assay after repeated oral administration; assay type: in vivo, B-hPD-1/hPD-L1 mice; conditions: female, B-hPD-1/hPD-L1, mouse; plasma, 50 mg/kg oral once a day, after administration on the 18th day
# Method: Twenty-four female B-hPD-1/hPD-L1 mice aged 6-8 weeks were purchased from Biocytogen Jiangsu Gene Biotechnology Co., Ltd. The mice were randomly divided into 4 groups, 6 mice in each group. The test compounds were prepared in a vehicle containing 5% DMSO, 60% PEG400 and 35% purified water, including I-1 and 3 control molecules Example 17, Compound 14 (INCB086550), and Example 180. The compounds were administered orally at 50 mg/kg, once a day. The blood was collected alternately through the fundus venous plexus after the administration on the 18th day. The blood collection time points were 15 min, 30 min, 1 h, 2 h, 4 h, 8h, 24 h and 32h. About 0.1 mL of blood was collected in a centrifuge tube (anticoagulated with sodium heparin), and centrifuged at 5000 rpm for 5 min. Then the plasma was separated, and frozen at −20° C. for later detection. After the plasma samples were processed, the concentration of the compounds in the plasma was determined by liquid chromatography-mass spectrometry (LC-MS/MS). The pharmacokinetic parameters were calculated using Phoenix WinNonlin 7.0.
# [2] = Tumor tissue distribution assay in MC38-PD-L1 tumor-bearing mice; assay type: in vivo, B-hPD-1/hPD-L1 humanized mice; conditions: 50 mg/kg oral once/day; for concentration at 4 h / concentration at 24 h: female, B-hPD-1/hPD-L1 humanized, mouse, tumor tissue
# Excerpt: 16 B-hPD-1/hPD-L1 humanized female mice, aged 6-8 weeks were purchased from Biocytogen Jiangsu Gene Biotechnology Co., Ltd. After 1 week of adaptation, the mice were subcutaneously inoculated with MC38-PD-L1 cells at 2×10^6 cells/site. After the tumor grew to about […], the mice were divided into 4 groups, 4 mice in each group. The test compounds were formulated in a vehicle containing 5% DMSO, 60% PEG400 and 35% purified water, including I-1 and 3 control molecules Example 17, Compound 14 (INCB086550), and Example 180. The compounds were orally administered at 50 mg/kg, once/day. The blood and tumor tissue were collected 4 h and 24 h after administration on the 18th day. A certain amount of tissue was weighed, and added with phosphate-buffered saline (PBS) solution for homogenization. After the sample was processed, it was analyzed by LC-MS/MS to determine the concentration of the compound in plasma and tissue.
# [3] = clinical studies; cited from earlier work
# [4] = test system: PD-1/PD-L1-mediated T cell activation inhibitory signal; experiment: CHO-PD-L1-CD3L / Jurkat-PD-1-NFAT co-culture luciferase reporter assay; assay type: cell-based; conditions: Homo sapiens, co-culture 6 h, read-out: EC50 blocking PD-1/PD-L1-mediated T cell activation inhibitory signal
# Method: In order to detect the effect of the interaction between PD-1 and PD-L1 on T cell activation signals in the immune response, CHO-PD-L1-CD3L cells stably expressing human PD-L1 molecules and anti-CD3 single-chain antibody (ScFv) and Jurkat-PD-1-NFAT cells stably expressing human PD-1 molecule and NFAT reporter gene were constructed. When the two kinds of cells were co-incubated, the binding of anti-CD3ScFv on the surface of CHO cells and the membrane CD3 molecules of Jurkat cells would transmit an activation signal to Jurkat cells, but simultaneously, the binding of PD-L1 on the surface of CHO cells and PD-1 molecules on the surface of Jurkat cells would transmit an inhibitory signal inward to prevent expression of the luciferase reporter gene. When immune checkpoint antibodies or small molecule inhibitors were added, the binding of PD-1 and PD-L1 was blocked, the NFAT pathway activated by T cell activation signal mediated by cross-linking of CD3ScFv antibody and CD3 was no longer affected by the inhibitory signal, and the downstream luciferase reporter gene started to be expressed. A chemiluminescent signal proportional to reporter gene activation was detected by adding a catalytic substrate.
# CHO-PD-L1-CD3L cells expressing human PD-L1 molecule and anti-CD3 single-chain antibody (ScFv) and Jurkat-PD-1-NFAT cells stably expressing human PD-1 molecule and NFAT reporter gene were independently constructed and provided by Dr. Chen Bo (KeyMed Bioscience (Chengdu) Co., Ltd.). Puromycin (Cat #540411) and Hygromycin B (Cat #V900372) for stable culture of transfected cells were purchased from Sigma, PMA (Cat #P1585) was purchased from Sigma, anti-human PD-L1 antibody (Cat #GMP-A066) was purchased from Novoprotein Company. Luciferase substrate solution (Cat #E6485) and luciferase-specific cell lysis solution 5× (Cat #E1531) were purchased from Promega. Fluorescence detection instrument Tecan (Spark 10M) was purchased from Switzerland Tecan Company.
# (1) The day before the experiment, 100 μL of CHO-PD-L1-CD3L cells were inoculated in each well of a 96-well cell culture plate (about 4×10^4 cells/well) with a medium of DMEM/F12 containing 10% FBS, 8 μg/mL puromycin and 200 μg/mL hygromycin B, and cultured overnight at 37° C.
# (2) The test compounds were diluted with 0.1% PBST into different concentration gradients, added into 96-well plates, and pre-incubated for 30 min. Jurkat-PD-1-NFAT cell count was adjusted to 2×10^5 cells/mL with the RPMI 1640 complete medium containing 10% FBS, […]8 μg/mL puromycin and 200 μg/mL hygromycin B. 100 ng/mL PMA (the stock solution was prepared with DMSO to a concentration of 10 mg/mL) was added to amplify T cell activation signal. 100 μL of the above Jurkat-PD-1-NFAT cells was added to each well of the 96-well plate for co-culture.
# (3) When detecting the reaction, a control group was provided, including a solvent control without adding test compounds and a positive control with addition of anti-human PD-1 antibody as the experimental system. All detections were performed with duplicates.
# (4) After continuous incubation at 37° C. for 6 h, 40 μL of 5× cell lysate was directly added, and mixed well. The plate was placed at room temperature for 10 min to completely lyse the cells. 50 μL of the lysed cell solution was transferred to a fluorescence detection plate, and added with 30 μL of luciferase substrate solution. The chemiluminescence detection program on the fluorescence detector was immediately selected for detection.
# (5) The inhibition rate of T cell activation signal at the cellular level of the test compounds was calculated as follows: Inhibition rate of T cell activation signal (%)=(the original value of chemiluminescence in the detection well−solvent control)/(the highest original value of chemiluminescence detected in the compound detection well−solvent control)×100%. […]
# [5] = 4 h after administration on the 18th day
# [6] = 24 h after administration on the 18th day
Compound,AUC(0-t) [1],MRT [1],half-life [1],"Ratio of I-1 to control molecule (tumor tissue concentration) [2, 5]","Ratio of I-1 to control molecule (tumor tissue concentration) [2, 6]","concentration at 4 h [2, 5]","concentration at 24 h [2, 6]",T1/2 [3],EC50 [4]
Cn1c(C(=O)Nc2cccc(-c3cccc(NC(=O)c4nc5c(n4C)CCN(CC46CCC(C(=O)O)(CC4)C6)C5)c3Cl)c2Cl)nc2c1CCN(CCO)C2 [Example 180],33700 ng·h/mL,5.6 h,3.8 h,8.7,30.2,4500 ng/g,900 ng/g,–,–
pembrolizumab: PD-1/PD-L1 antibody drug,–,–,–,–,–,–,–,600 h,–
atezolizumab: PD-1/PD-L1 antibody drug,–,–,–,–,–,–,–,648 h,–
nivolumab: PD-1/PD-L1 antibody drug,–,–,–,–,–,–,–,605 h,–
Cn1c(C(=O)Nc2cccc(-c3cccc(NC(=O)c4nc5c(n4C)CCN(CCC46CCC(C(=O)O)(CC4)C6)C5)c3Cl)c2Cl)nc2c1CCN(CCC13CCC(C(=O)O)(CC1)C3)C2 [Example 17],67400 ng·h/mL,5.8 h,4.2 h,7.8,27.2,5000 ng/g,1000 ng/g,–,–
"[2H]c1c([2H])c(NC(=O)c2nc3c(n2C)CCN(CCC24CCC(COC)(CC2)C4)C3)c(F)c(-c2c([2H])c([2H])c([2H])c(NC(=O)c3nc4c(n3C)CCN(CCC35CCC(C(=O)O)(CC3)C5)C4)c2Cl)c1[2H] [Compound I-15, 4-(2-(2-((2-chloro-2′-fluoro-3′-(5-(2-(4-(methoxymethyl)bicyclo[2.2.1]heptane-1-yl)ethyl)-1-methyl-4,5,6,7-tetrahydro-1H-imidazo[4,5-c]pyridine-2-carboxamido)-[1,1′-biphenyl]-3-yl-4,4′,5,5′,6,6′-d6)carbamoyl)-1-methyl-1,4,6,7-tetrahydro-5H-imidazo[4,5-c]pyridin-5-yl)ethyl)bi cyclo[2.2.1]heptane-1-carboxylic acid]",–,–,–,–,–,–,–,–,18.9 nM
Cc1c(Nc2nccc3cc(CN4CC[C@@H](O)C4)cnc23)cccc1-c1cccc(-c2nc3cc(CN4CC[C@@H](C(=O)O)C4)cc(C#N)c3o2)c1C [Compound 14 (INCB086550)],15800 ng·h/mL,5.1 h,3.9 h,5.9,7.6,6600 ng/g,3600 ng/g,–,–
